# Test results published in US20220016168A1, “METHODS OF USING CD27 ANTIBODIES AS CONDITIONING TREATMENT FOR ADOPTIVE CELL THERAPY” (Celldex Therapeutics, Inc., priority 2018, published 2022).
# T1: human CD70-Fc binding to CD27 on CD4+CD25+ Treg cells (Homo sapiens, UniProt P26842)
# T1 construct: from tissue; host or cells: splenocytes from hCD27+/+ mCD27-/- transgenic mice
# T1 sequence (P26842 20-260): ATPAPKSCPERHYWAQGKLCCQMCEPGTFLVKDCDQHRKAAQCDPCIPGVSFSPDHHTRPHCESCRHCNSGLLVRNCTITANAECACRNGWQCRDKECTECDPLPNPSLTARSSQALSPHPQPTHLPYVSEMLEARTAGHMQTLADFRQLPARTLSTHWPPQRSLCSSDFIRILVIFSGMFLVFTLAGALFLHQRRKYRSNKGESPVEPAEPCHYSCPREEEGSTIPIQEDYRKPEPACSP
# T2: w.t. CD27 extracellular domain fragment (Homo sapiens, UniProt P26842)
# T2 construct: made in house; culture supernatant used
# T2 sequence (P26842 21-130): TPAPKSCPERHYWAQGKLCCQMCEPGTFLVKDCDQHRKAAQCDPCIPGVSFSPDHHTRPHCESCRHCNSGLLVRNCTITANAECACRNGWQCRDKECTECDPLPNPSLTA
# T3: mouse CD27 on splenocytes (gated CD4+CD25+ Treg cells) of w.t. mice (mouse, UniProt P41272 24-250)
# T3 construct: whole, on cells; also called mCD27
# T3 sequence (looked up): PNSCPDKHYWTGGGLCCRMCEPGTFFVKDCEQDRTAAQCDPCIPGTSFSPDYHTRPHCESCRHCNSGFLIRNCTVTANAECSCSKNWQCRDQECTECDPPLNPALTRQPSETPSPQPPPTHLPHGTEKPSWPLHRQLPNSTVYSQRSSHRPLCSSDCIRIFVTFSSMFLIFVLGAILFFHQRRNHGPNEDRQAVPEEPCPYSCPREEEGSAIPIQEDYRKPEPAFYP
# T4: CD27 extracellular domain fragment, amino acid residues 1-110, R87A mutation sequence, fused with a human … (human, UniProt P26842 21-130)
# T4 construct: Used as culture supernatant of transient transfection; also called CD27R87A; mutant CD27 fragment; not shown: human kappa chain at the N-terminus; flag-tag at the C-terminus
# T4 chain: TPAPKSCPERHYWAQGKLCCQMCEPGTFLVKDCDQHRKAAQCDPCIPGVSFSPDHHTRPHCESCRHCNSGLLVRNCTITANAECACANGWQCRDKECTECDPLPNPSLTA
# Legend:
# [1] = tested on: E.G7 cells; test: E.G7 tumor model with OT-I T-cell adoptive therapy; assay type: in vivo, mice
# [2] = tested on: CD8, CD4 T-cells and Treg (CD4+Foxp3+); test: T-cell depletion in spleen and pLNs of human CD27 transgenic mice (flow cytometry); assay type: in vivo
# Text: Spleens and pLNs were collected 7 days later and processed for flow cytometry analysis.
# The same preparations of splenocytes and pLNs cells as in Example 1 were stained for CD8, CD4 and Foxp3.
# [3] = tested on: recipient CD3 T-cells; test: Recipient T-cell depletion after CD27 Ab pretreatment (flow cytometry); assay type: in vivo, mice; conditions: for recipient CD3 T-cell counts on day 0: compared to isotype control
# Method: Spleens and pLNs were collected from one set of mice on day 0 without cell transfusion and from another set of mice 14 days post intravenous (i.v.) transfusion with 2×10^6 CFSE-labeled w.t. CD8 T-cells for the assessment of recipient cell depletion (FIG. 4A) and donor cell expansion (FIG. 4B). Percentages of recipient CD3 T-cells (CD45.1^+CD45.2^−CD3^+) and donor origin CD8 T-cells (CD45.1^−CD45.2^+CD3^+CD8^+) out of total live cells in spleens and pLNs were determined by flow cytometry and the absolute numbers of donor origin cells were calculated based on total cell counts of spleens and pLNs.
# These mice were bled and then transfused with 2×10^6 CD8 T-cells on day 0. Shown are the percentages of donor origin cells out of total live cells in the spleen and pLNs after 14 days of in vivo expansion (FIG. 10A) and the percentages of CD3 T cells in recipients' blood on day 0 before transfusion (FIG. 10B). Data are from one representative experiment of two performed, n=5 mice per group, *p<0.05, **p<0.01, ***p<0.001 indicating statistical significance compared to isotype control or between groups as specified by the horizontal line.
# (§1) CD8 T cells on day 0. Spleens and pLNs were collected on day 14 and processed for flow cytometry analysis. […] CD8, CD4 and Treg cell counts per μl blood were depicted in FIG. 11C (n=6 mice per group).
# [4] = tested on: donor origin CD8 T-cells; test: In vivo expansion of adoptively transferred donor T-cells in pretreated recipient mice; conditions: for donor CD8 T-cell expansion: 14 days post transfusion
# [5] = biological target: T1, human CD70-Fc binding to CD27 on CD4+CD25+ Treg cells; test: hCD70-Fc staining on hCD27+/+mCD27-/- splenocytes preincubated with Ab (ligand blocking); conditions: 10 μg Ab 30 minutes on ice, vs hIgG1 isotype control
# Method: Splenocytes from hCD27^+/+mCD27^−/− mice were incubated with 10 μg Ab as indicated for 30 minutes on ice and then stained with a fluorescently labeled human CD70-Fc fusion protein (0.5 μg) and Abs for cell surface markers. Shown is a histogram of hCD70-Fc staining on gated CD4^+CD25^+ Treg cells.
# [6] = tested on: CD8 T cells; test: Ki-67 proliferation of donor and recipient CD8 T cells after varlilumab; assay type: in vivo, mice; conditions: spleen, varlilumab pretreatment
# Text: as §1
# Percentage of ki-67^+ in gated donor origin or recipient origin CD8 T cells in the spleen of the same mice as in FIGS. 11A and 11B were depicted in FIG. 12A. Percentages of Ki-67^+ cells in gated CD8 T cells in the spleen and pLNs of the same mice as in FIG. 11C were depicted in FIG. 12B.
# [7] = tested on: WBC subpopulations; test: Total and differential WBC counts and Treg recovery after conditioning treatment; assay type: in vivo, mice
# [8] = biological target: T2, w.t. CD27 extracellular domain fragment; test: ELISA binding to w.t. CD27 fragment; conditions: serially diluted supernatants
# Text: CD27 extracellular domain spanning amino acid residue 1-110 w.t. sequence and R87A mutation sequence according to Kabat numbering were cloned into an expression vector fused with a human kappa chain in the N-terminus and a flag-tag in the C-terminus. The CD27 fragments were expressed by transient transfection and quantified by an ELISA measuring concentration of human kappa chain in the culture supernatant.
# [9] = biological target: T3, mouse CD27 on splenocytes (gated …); test: flow cytometry, labeled mCD70-Fc (0.5 ug) on gated CD4+CD25+ Treg cells of w.t. mouse splenocytes
# Text: FMO stands for fluorescence minus one, reflecting background fluorescence on the same gated cells.
# [10] = biological target: T4, CD27 extracellular domain fragment, …; test: ELISA, CD27 fragment captured by anti-flag Ab
# [11] = tested on: SIINFEKL-specific IFNγ spots; test: OVA immunisation ELISPOT (co-stimulatory/agonistic activity); assay type: in vivo; conditions: 5 mg OVA and 50 μg Ab on day 0, spleens 7 days later, hCD27+/-mCD27wt mice
# Text: (§2) Shown are […]-specific IFNγ spots number per spleen, n=4 or 5 mice per group (FIG. 9C). Data are from one representative experiment of two performed, *p<0.05, ***p<0.001, ****p<0.0001, indicating statistical significance compared to isotype control or between groups as specified by the horizontal line.
# as §2, with “Spleens were collected 7 days later for ELISPOT analysis. Shown” for “Shown”, “n=5” for “n=4 or 5”, “10C).” for “9C).”, “**p<0.01,” for “***p<0.001, ****p<0.0001,”
molecule,measurement,setting,value
SIINFEKL (Ovalbumin peptide; listed as Gallus gallus) [reference compound],long-term survival with or without SIINFEKL peptide injection following OT-I T cell transfer,[1]; 100 μg i.p. day 8 or 20 μg day 17,no difference in long-term survival
varlilumab: fully human monoclonal IgG1 antibody binding CD27; heavy/light chains SEQ ID NO: 68 and 69,percentage and absolute numbers of Treg in peripheral lymph organs,"[2]; 0.2 mg i.p., 7 days, spleen and pLNs, vs isotype control",reduced
same,"total T-cells (CD8 and CD4), percentage out of total live cells and absolute numbers","[2]; 0.2 mg i.p., spleens and pLNs 7 days later, hCD27+/-mCD27wt mice, vs isotype control",reduced
same,pattern of T-cell deletion among T-cell subsets,[2]; Examples 1 and 2 together,"preferentially on Treg and secondarily on CD4-Th, while the least reduction is on CD8 T-cells"
same,"T cell reduction in the two strains of recipients (CD8, CD4 and Treg counts per μl blood)","[3]; 300 μg day 0, blood 14 days later, hCD27+/+mCD27-/- vs hCD27+/+mCD27wt",same extent of T cell reduction
same,recipient CD3 T-cell counts on day 0,[3]; 1 dose on day -14,reduced to the same extent
same,recipient CD3 T-cell counts on day 0,[3]; 2 doses on day -14 and -2,reduced to the same extent
same,recipient CD3 T-cell counts on day 0,[3]; Ab on day -2 only,no significant reduction
same,recipient CD3 T-cell counts by day 14 compared to day 0,[3]; Ab on day -14 only,remained the same
same,recipient CD3 T-cell counts by day 14 compared to day 0,[3]; varlilumab on day -2 only,further decreased
same,recipient CD3 T-cell counts by day 14 compared to day 0,[3]; varlilumab on day -14 and -2,further decreased
same,"percentage of donor-origin CD8 T-cells out of total live cells, time course","[4]; 200 μg day -7 and -2, spleens and pLNs day 7, 14 and 21, vs hIgG1",long-lasting accumulation of donor-origin CD8 T-cells
same,transferred cell expansion in recipients lacking CD27 signaling,"[4]; 200 μg days -7 and -2, hCD27+/+mCD27-/- recipients, day 14",remarkable transferred cell expansion
same,expansion of transfused CD8 T-cells compared to 2C2 or varlimut,"[4]; 300 μg days -14 and -2, hCD27+/+mCD27-/- mice, 14 days",greater expansion of transfused CD8 T-cells
same,donor CD8 T-cell expansion,[4]; 300 μg i.p. on day -2 only,minimal expansion
same,donor CD8 T-cell expansion,"[4]; 300 μg i.p. on day -14 and -2, hCD27+/+mCD27-/- mice",greatest expansion
same,donor CD8 T-cell expansion,[4]; 300 μg i.p. on day -14 only,median level of expansion
same,"donor cell expansion (donor origin CD8 T-cells in blood, spleen and pLNs)","[4]; Example 14 regimens, day 14, Cy and Flu vs control mice, varlilumab vs Cy and Flu",further increased
same,CFSE dilution in donor-origin CD8 T-cells,"[4]; pretreatment day -14 and -2, vs hIgG1",enhanced proliferation
same,hCD70-Fc staining on gated CD4+CD25+ Treg cells (ligand blocking),[5],no hCD70 binding detected
same,CD8 T-cell proliferation (Ki-67+) donor origin vs recipient origin cells,[6]; hCD27+/+mCD27-/- mice,significantly higher in donor origin cells
same,CD8 T-cell proliferation (Ki-67+) donor origin vs recipient origin cells,[6]; hCD27+/+mCD27wt mice,no difference
same,conditioning effect of one delayed dose alone,"[1]; 300 μg day 14 only, OT-I day 16, survival",no conditioning effect by itself
same,antitumor efficacy of varlilumab pretreatment followed by OT-I T-cell transfer,"[1]; 300 μg day -2 and 5, OT-I day 7, tumor growth and survival",stronger antitumor efficacy than varlilumab alone
same,antitumor efficacy of OT-I T-cells compared to hIgG1 isotype control,"[1]; delayed therapy: 300 μg day 6 and 14, OT-I day 16",enhances antitumor efficacy of OT-I T-cells
same,OT-I T-cells antitumor activity compared to hIgG1 control,"[1]; varlilumab 300 μg day 7 and 14, or Cy 1 mg and Flu 0.1 mg day 13 and 14, OT-I day 16",facilitates OT-I T-cells antitumor activity
same,effect of one delayed dose combined with Cy and Flu on OT-I T-cells antitumor activity,"[1]; varlilumab 300 μg day 14 plus Cy 1 mg and Flu 0.1 mg day 13 and 14, survival",synergizes
same,"percentage of Treg cells out of total live cells in blood, spleen and pLNs on day 14",[7]; 14 days post cell transfer,remains low
same,total and differential counts of WBC per μl blood on day of adoptive transfer (day 0),"[7]; varlilumab 300 μg day -14 and -2, Cy 1 mg and Flu 0.1 mg day -4, -3, -2, hCD27+/+mCD27-/- mice","only depletes T-cells with the most reduction in Treg population and does not attack myeloid cells, B-cells and NK cells"
same,binding to w.t. CD27 fragment (OD450),[8],recognizes w.t. CD27
"mouse CD70-Fc fusion protein (Fc fusion, UniProt O55237 45-195, looked up, Fluorescence-labeled; also called mCD70-Fc; not shown: Fc part) SKQQQRLLEHPEPHTAELQLNLTVPRKDPTLRWGAGPALGRSFTHGPELEEGHLRIHQDGLYRLHIQVTLANCSSPGSTLQHRATLAVGICSPAAHGISLLRGRFGQDCTVALQRLTYLVHGDVLCTNLTLPLLPSRNADETFFGVQWICP",binding result,[9],binds
"varlilumab (antibody, human IgG1, kappa, V domains shown, Fully human monoclonal anti-human CD27 antibody; also called 1F5; CDX-1127) VH: QVQLVESGGGVVQPGRSLRLSCAASGFTFSSYDMHWVRQAPGKGLEWVAVIWYDGSNKYYADSVKGRFTISRDNSKNTLYLQMNSLRAEDTAVYYCARGSGNWGFFDYWGQGTLVTVSS VL: DIQMTQSPSSLSASVGDRVTITCRASQGISRWLAWYQQKPEKAPKSLIYAASSLQSGVPSRFSGSGSGTDFTLTISSLQPEDFATYYCQQYNTYPRTFGQGTKVEIKR",binding result,[10],no binding
"varlimut: a FCD265A mutated mouse IgG1 isotype of varlilumab (antibody, V domains shown) VH: QVQLVESGGGVVQPGRSLRLSCAASGFTFSSYDMHWVRQAPGKGLEWVAVIWYDGSNKYYADSVKGRFTISRDNSKNTLYLQMNSLRAEDTAVYYCARGSGNWGFFDYWGQGTLVTVSS VL: DIQMTQSPSSLSASVGDRVTITCRASQGISRWLAWYQQKPEKAPKSLIYAASSLQSGVPSRFSGSGSGTDFTLTISSLQPEDFATYYCQQYNTYPRTFGQGTKVEIK",depleting activity (percentages of CD3 T cells in recipients' blood on day 0),"[3]; 300 μg days -14 and -2, hCD27+/+mCD27-/- mice",no depleting and agonistic activities
same,co-stimulatory / agonistic activity (SIINFEKL-specific IFNγ spots number per spleen),[11],no depleting and agonistic activities
same,hCD70-Fc staining on gated CD4+CD25+ Treg cells (ligand blocking),[5],blocks ligand binding
